A word on the IC50: it is the concentration that inhibits the measured activity by half.

Results on six molecules are retold here after patent US20240327331A1, “ESTERS OF 7-COOH CBD DERIVATIVES AND THEIR USE AS PREVENTION, PROPHYLAXIS OF PROGRESSION, AND/OR TREATMENT OF NEUROGENERATIVE DISEASES” (Receptor Pharma INC, priority 2021, published 2024).

Series [1] concerns the target T1, GPR3 receptor (Homo sapiens, UniProt P46089). To be noted: cited from earlier work; for mode of action at the GPR3 receptor: Laun and Song 2017, Lunn et al 2006.
In series [2] the target is T1, GPR3 receptor. The series can be described thus: PathHunter β-arrestin2 recruitment assay in CHO-K1 cells expressing GPR3-PK. In kind it is cell-based. Details: host or cells: CHO-K1 (PathHunter eXpress kit). To be noted: for mode of action at the GPR3 receptor (β-arrestin2 recruitment): 0.1 μM, 1 μM and 10 μM, FIG. 1. The source says:
The PathHunter™ eXpress kits containing Chinese hamster ovary (CHO)-K1 cells co-expressing EA-O-arrestin2 human and GPR3-PK were purchased from DiscoverX (Fremont, CA). All cannabinoid ligands were purchased from BDG Synthesis (Wellington, New Zealand).
PathHunter™ eXpress kits were used to measure GPR3-mediated β-arrestin2 recruitment following manufacturer's instructions. In this system, Chinese hamster ovary (CHO)-K1 cell line are stably expressing the GPR3 receptors which were fused to a “ProLink (PK)” fragment of βi-galactosidase to form GPR3-PK. The remaining sequence of β-galactosidase enzyme acceptor (EA) was linked to β-arrestin2 to form EA-β-arrestin2. Recruitment of Si-arrestin2 by receptor activation causes complementation of the two enzyme fragments. Levels of the active enzyme are the direct result of β-arrestin2 recruitment caused by receptor activation and quantified using the PathHunter detection reagent containing β-galactosidase substrates. Cells were plated in DiscoverX cell plating reagent1 in 384-well plates and cultured for 24-48 hours prior to experimentation in a humidified atmosphere at 37° C. and 5% CO2. Cannabinoid ligands were diluted in DiscoverX cell plating reagent1. Cells were then incubated with ligand at 37° C. following manufacturer's recommendations, followed by incubation with detection reagent in the dark for 1 hour at 23° C. Luminescence signal was then detected using a TECAN GENios Pro microplate reader.
Ligand-induced changes in R-arrestin2 recruitment to GPR3 were expressed as percent basal relative luminescence units, which was calculated by dividing luminescence readings in the presence of ligands by basal luminescence readings, times 100. Concentration-response curves were generated by performing nonlinear regression analysis using GraphPad Prism (GraphPad Software, La Jolla, CA). Data were analyzed using one-way analysis of variance (ANOVA) followed by NewmanKeuls post-test. Data points shown are presented as mean±SEM, and were obtained from three independent experiments performed in quadruplicate.
To determine whether CBD and its human metabolites 6-OH-CBD, 7-OH-CBD and 7-COOH-CBD are capable of changing S3-arrestin2 recruitment to GPR3, β-arrestin2 recruitment assays were performed using 0.1 μM and 1 μM and 10 μM concentrations.
On the technique in general: Arrestin recruitment assays detect the binding of arrestin to an activated receptor.

The conditions of series [3]: after CBD, in the body; cited from earlier work.
The subject of series [4] is CB1 and CB2 receptors as well as the voltage gated Na channel and mono-amine transporters. To be noted: physiological relevant concentrations; cited from earlier work.
Series [5] deals with animal models of epilepsy. To be noted: cited from earlier work.
The subject of series [6] is icv streptozotocin (stz) rat model of Alzheimer Disease. The series is described as follows: Novel object recognition test in icv streptozotocin rat model of Alzheimer Disease. In kind it is in vivo, Wistar rats. To be noted: STZ 3 mg/kg icv, daily treatment 8 days, test after 24 h; 1j 25 mg/kg ip, 7-COOH-CBD 20 mg/kg; N=6. The source says:
This in vivo model represents a model for the most frequent form of Alzheimer Disease, the late onset or ‘sporadic’ form. The icv injection of stz in the rat brain induces pathological changes that are observed in patients with Alzheimer Disease, like accumulation of beta-amyloid and Tau-protein and the well-known cognitive impairment. This well-known model was first described in the 90-ies by Mayer et al. (1990) and Lannert et al. (1998). The procedure for the creation of the model has recently been described in detail by Moreiro-Silva et al. (2019). In short, a 1-3 mg/kg dose of stz is injected bilateraly by icv injection in Wistar rats, and the animals are allowed to recover for a period of 7 days, after which animals can be evaluated for neurodegenerative changes in behaviour and/or by imaging of the brain.
The novel object recognition data were analyzed using the Student's t-test, with differences being considered significant if p<0.05.
On day 8, the animals were subjected to the novel object recognition (NOR) behavioural test. All objects used for the is test had similar textures, colors, and sizes but distinctive shapes. The rats were placed in a rectangular arena (76×49×57 cm) containing two identical objects (A1+A2) for the habituation and training phase. […] The discrimination index was calculated by: […]

T1 sequence (P46089 whole entry): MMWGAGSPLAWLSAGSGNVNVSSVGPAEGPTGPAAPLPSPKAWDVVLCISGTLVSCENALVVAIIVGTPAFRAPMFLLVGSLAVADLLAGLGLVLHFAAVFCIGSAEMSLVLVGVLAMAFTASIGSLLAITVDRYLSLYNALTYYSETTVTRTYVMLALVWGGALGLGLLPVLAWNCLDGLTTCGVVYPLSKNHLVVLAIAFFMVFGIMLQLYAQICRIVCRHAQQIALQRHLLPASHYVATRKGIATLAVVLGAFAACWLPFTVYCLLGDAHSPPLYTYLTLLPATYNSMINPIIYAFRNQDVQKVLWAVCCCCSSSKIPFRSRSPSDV

With `C=C(C)[C@@H]1CCC(C)=C[C@H]1c1c(O)cc(CCCCC)cc1O` [CBD, Cannabidiol], the “mode of action at the GPR3 receptor” value in series [1] was “inverse agonist”. In series [1] (inverse agonism), the IC50 is 1220 nM. Also, the “inhibition of GPR3 receptor activity” value in series [1] (inverse agonist, dose-dependent) is reported as 39%. Moreover, the “mode of action at the GPR3 receptor (β-arrestin2 recruitment)” value (“mode of action … (β-arrestin2 recruitment)” below) in series [2] was “inverse agonist”.

`C=C(C)[C@@H]1C[C@H](O)C(C)=C[C@H]1c1c(O)cc(CCCCC)cc1O` [Example 6-OH-CBD]: in series [2], the “mode of action … (β-arrestin2 recruitment)” value is recorded as “weak agonists”.

With `C=C(C)[C@@H]1CCC(C(=O)O)=C[C@H]1c1c(O)cc(CCCCC)cc1O` [Example 7-COOH-CBD, (3R-trans)-3-(2,6-dihydroxy-4-pentylphenyl)-4-(1-methylethenyl)-1-cyclohexene-1-carboxylic acid], in series [3], the “plasma levels of metabolite relative to parent compound CBD” value is listed as “up to 50 fold”. Also, the “binding or modulation in in vitro binding/target panel” value in series [4] is recorded as “no binding or modulation properties”. The anticonvulsant action entry in series [5] was “devoid of any anticonvulsant action”. Moreover, the “long-term memory index (discrimination index), novel object recognition” value in series [6] is given as 79.6±3.4. For the same molecule, the “mode of action … (β-arrestin2 recruitment)” value in series [2] is listed as “full antagonist”. The “competition with SR144528 at the GPR3 binding site” value in series [2] (10 μM 7-COOH-CBD, ascending concentrations of SR144528) is “displaces the inverse agonist from the GPR3 binding site”.

For `C=C(C)[C@@H]1CCC(CO)=C[C@H]1c1c(O)cc(CCCCC)cc1O` [Example 7-OH-CBD, 7-hydroxy-CBD], the “plasma levels of metabolite relative to plasma levels of parent compound CBD” value in series [3] is recorded as “about 50%”. Also, the anticonvulsant action entry in series [5] was “equipotency to CBD”. For the same molecule, the “mode of action … (β-arrestin2 recruitment)” value in series [2] is given as “weak agonists”.

On to `COc1ccc(S(=O)(=O)c2cc(OC)ccc2S(=O)(=O)c2ccc([C@H](C)NS(C)(=O)=O)cc2)cc1` [Sch.336, N-[1(S)-[4-[[4-methoxy-2-[(4-methoxyphenyl)sulfonyl]phenyl]-sulfonyl]phenyl]ethyl]methanesulfonamide], for which, in series [1], the “mode of action at the GPR3 receptor” value is given as “inverse agonist”.

Take “(3R-trans)-3-(2,6-dihydroxy-4-pentylphenyl)-4-(1-methylethenyl)-1-cyclohexene-1-carboxylic acid cyclopropane ester [Example 1j]”: in series [6], the “long-term memory index (discrimination index), novel object recognition” value was determined as 80.5±3.9.
